Results from PubChem BioAssay (NCI).
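Grown in 96-well plates, cells were treated for 48 hours with each compound at five concentrations. Insufficient inhibition: endpoint recorded as highest concentration tested. TGI: concentration producing complete growth inhibition.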

What was measured:
Test in all cases: inhibition of tumour cell growth, NCI panel, 48 h
SK-MEL-2 melanoma = tested on: SK-MEL-2 melanoma
OVCAR-3 ovarian = tested on: OVCAR-3 ovarian
NCI/ADR-RES ovarian = tested on: NCI/ADR-RES ovarian
KM12 colon = tested on: KM12 colon
MALME-3M melanoma = tested on: MALME-3M melanoma
K-562 leukemia = tested on: K-562 leukemia
SK-OV-3 ovarian = tested on: SK-OV-3 ovarian
UO-31 renal = tested on: UO-31 renal
COLO 205 colon = tested on: COLO 205 colon
OVCAR-8 ovarian = tested on: OVCAR-8 ovarian

SMILES	TGI (SK-MEL-2 melanoma)	TGI (OVCAR-3 ovarian)	TGI (NCI/ADR-RES ovarian)	TGI (KM12 colon)	TGI (MALME-3M melanoma)	TGI (K-562 leukemia)	TGI (SK-OV-3 ovarian)	TGI (UO-31 renal)	TGI (COLO 205 colon)	TGI (OVCAR-8 ovarian)
CCC(C)C(NC(=O)c1cccc2c(=O)c3ccccc3[nH]c12)C(=O)O (stereo not given)	> 100 µM	> 100 µM	> 100 µM	> 100 µM	> 100 µM	> 100 µM	> 100 µM	> 100 µM	> 100 µM	> 100 µM
Cc1ccc([N+](=O)[O-])cc1S(=O)(=O)Nc1ccc(C2=NN(S(=O)(=O)c3cc([N+](=O)[O-])ccc3C)C(c3ccccc3O)C2)cc1 (stereo not given)	> 100 µM	> 100 µM	> 100 µM	> 100 µM	> 100 µM	> 100 µM	> 100 µM	> 100 µM	> 100 µM	> 100 µM
Clc1ccc(Cc2nc3cc(Cl)c(Cl)cc3n2CC2CCCN3CCCCC23)cc1 (stereo not given)	29.8 µM	28.5 µM	27.3 µM	40 µM	20.9 µM	> 100 µM	32.8 µM	1.6 µM	22.3 µM	26.1 µM
CCN(CC)C(=O)N[C@@H](CC(C)C)C(=O)NC	> 100 µM	> 100 µM	> 100 µM	> 100 µM	> 100 µM	> 100 µM	> 100 µM	> 100 µM	> 100 µM	> 100 µM
CC[C@@]1(O)C(=O)OCc2c1cc1n(c2=O)Cc2c-1nc1ccc(N)cc1c2CC[Si](C)(C)C	0.427 µM	0.797 µM	2.02 µM	3.68 µM	0.31 µM	> 38.2 µM	1.63 µM	< 0.0173 µM	0.197 µM	0.818 µM
CN(CCNC(=O)c1nn(C)c2c1Cc1ccccc1-2)CCNC(=O)c1nn(C)c2c1Cc1ccccc1-2	28.6 µM	29.8 µM	70.4 µM	43.7 µM	29.8 µM	29.6 µM	43.7 µM	24.2 µM	24.8 µM	42.2 µM
NS(=O)(=O)c1ccc(Nc2c3ccccc3nc3c(C(=O)NC(CO)(CO)CO)cccc23)cc1	0.396 µM	0.339 µM	> 1 µM	0.309 µM	0.272 µM	0.642 µM	0.468 µM	0.366 µM	0.175 µM	0.595 µM
CNC(=O)OC1/C(C)=C\C(C)C(O)C(OC)CC(C)CC2=C(OC)C(=O)C=C(C2=O)N(C)C(=O)/C(C)=C/C=C\C1OC (stereo not given)	21.9 µM	16 µM	62 µM	26.3 µM	27.1 µM	12.5 µM	30 µM	31.7 µM	7.9 µM	21.1 µM
O=C1c2ccccc2CC12Cc1ccc3c(c1C2=O)CCCC3 (stereo not given)	> 100 µM	> 100 µM	> 100 µM	> 100 µM	> 100 µM	> 100 µM	> 100 µM	> 100 µM	> 100 µM	> 100 µM
C=CCN(C(C)=O)c1cc(OCc2ccccc2)c2c(c1)c(C)cn2S(=O)(=O)c1ccccc1	12.3 µM	> 27.7 µM	> 100 µM	> 100 µM	34.2 µM	> 54.8 µM	> 100 µM	> 100 µM	12.6 µM	> 100 µM
CCCCCCCC(=O)NC(C)(C)C(=O)NCC(=O)NC(CC(C)C)C(=O)NC(C)(C)C(=O)NCC(=O)NCC(=O)NC(CC(C)C)C(=O)NC(C)(C)C(=O)NCC(=O)NC(C(=O)NC(CO)CC(C)C)C(C)CC (stereo not given)	5.85 µM	6.36 µM	9.12 µM	5.15 µM	8.93 µM	9.11 µM	7.61 µM	7.93 µM	7.18 µM	7.62 µM
C[N+]1(CC[N+]2(C)CCCC2c2cccnc2)CCCC1c1cccnc1 (stereo not given)	> 100 µM	> 100 µM	> 100 µM	> 100 µM	> 100 µM	> 100 µM	> 100 µM	> 100 µM	> 100 µM	> 100 µM
O=C1N[C@@H]([C@H]2CC[C@H](Cl)CN2)C(=O)N[C@H]1[C@H]1CC[C@H](Cl)CN1	7.95 µM	7.61 µM	10.4 µM	19.1 µM	8.59 µM	227 µM	2.31 µM	6.42 µM	9.68 µM	13.9 µM
C/C(=C\COP(=O)(O)OP(=O)(O)O)CC/C=C(\C)CNc1c(F)c(F)c(F)c(F)c1F	> 100 µM	> 100 µM	> 100 µM	> 100 µM	> 100 µM	> 100 µM	> 100 µM	> 100 µM	> 100 µM	> 100 µM
CCOC(=O)c1cccc(N=NNc2cccc(C(=O)OCC)c2)c1	> 100 µM	93.9 µM	> 100 µM	> 100 µM	> 100 µM	> 100 µM	93.4 µM	45.6 µM	> 100 µM	91.8 µM
O=[N+]([O-])C(/C=C(\Cl)[N+](=O)[O-])=C(N1CCOCC1)N1CCOCC1	> 100 µM	34.4 µM	> 100 µM	> 100 µM	70.3 µM	37.6 µM	> 100 µM	54 µM	33.9 µM	> 100 µM
O=C1CC2(CCN(Cc3ccccc3)CC2)C(=O)N1N1CCCCC1	> 100 µM	> 100 µM	> 100 µM	> 100 µM	> 100 µM	> 100 µM	> 100 µM	> 100 µM	> 100 µM	> 100 µM
CC(C)C(Sc1nc(N)nc2nc[nH]c12)C(=O)O (stereo not given)	> 100 µM	> 100 µM	> 100 µM	> 100 µM	> 100 µM	> 100 µM	> 100 µM	> 100 µM	> 100 µM	> 100 µM
